Results from patent US6890950B2, “Lapachone delivery systems, compositions and uses related thereto” (priority 2002, dated 2005).
“And” between values parts separate entries of the source, which are not always exact repeats. Equal values may be shown once.

What was measured:
LNCaP = assay: TUNEL apoptosis assay; type: cell-based, human; details: 10 μM, 4h
DU-145 = assay: TUNEL apoptosis assay; type: cell-based, human; details: 10 μM, 4h, TUNEL 48h
PC-3 = assay: TUNEL apoptosis assay; type: cell-based, human; details: 10 μM, 4h, TUNEL 48h
A549 NSCLC cells = assay: survival and apoptosis (PARP cleavage) of NSCLC cells; type: cell-based, human; details: 50 μM, 4 h
Excerpt: NQO1-dependent apoptosis of A549 or CC-10 NSCLC cells by β-lap.

[1] = system: NQO1-containing LNCaP clones; assay: colony forming ability assays; type: cell-based, human; details: 4-h pulses
Method: FIG. 14. […] Colony forming ability assays (CFAs) were performed three times, each in triplicate.
LNCaP cells were transfected with either pcDNA3 empty vector or pcDNA3 containing full-length NQO1 cDNA.

[2] = association constant (Kc) from phase solubility diagrams; type: physicochemical; details: for association constant Kc (phase solubility): inclusion complex with β-lap, PBS, 25° C., 1:1
Method: Solubility studies were performed by adding excess amount of β-lap to a series of PBS buffer that contain different concentrations of each CD molecule ranging from zero to its solubility limit (see Table 1 for the solubility limit of each CD molecule). A schematic diagram of the intermolecular interactions and their effect on solubility is provided as FIG. 1. The suspensions were stirred at 25° C. until dissolution equilibrium was reached. Then aliquots were withdrawn, filtered (Nylon syringe filter 0.2 μm pore size from Fisher Scientific (Pittsburg, Pa.)) and analyzed for β-lap concentrations by UV-V is spectrophotometry (λmax=257.2 nm, ε=109.6 ml/(mg·cm)). Phase solubility diagram for each CD was obtained by plotting the β-lap solubility at dissolution equilibrium as a function of the CD concentration. The association constant (Kc) [formula] for the complex formation was calculated based on Equation 1 assuming a 1:1 ratio of complex formation (T. Higuchi and K. A. Connors. Adv Anal Chem Instrum. 4:117-212 (1965)). ^1H NMR Study of CD.β-lap Inclusion Complexes

[3] = phase solubility studies of β-lap with cyclodextrins; type: physicochemical
Method: Solubility studies were performed by adding excess amount of β-lap to a series of PBS buffer that contain different concentrations of each CD molecule ranging from zero to its solubility limit (see Table 1 for the solubility limit of each CD molecule). A schematic diagram of the intermolecular interactions and their effect on solubility is provided as FIG. 1. The suspensions were stirred at 25° C. until dissolution equilibrium was reached. […] Phase solubility diagram for each CD was obtained by plotting the β-lap solubility at dissolution equilibrium as a function of the CD concentration.

CC[C@@]1(O)C(=O)OCc2c1cc1n(c2=O)Cc2cc3ccccc3nc2-1 [Camptothecin, camptothecin]
Apoptosis (%) After Drug Treatment (LNCaP; LNCaP + DC (50 μM dicoumarol), TUNEL 48h): 33 ± 9%
Apoptosis (%) After Drug Treatment (LNCaP; LNCaP + DVED, TUNEL 48h): 10 ± 3%
Apoptosis (%) After Drug Treatment (LNCaP; LNCaP, TUNEL 48h post-treatment): 30 ± 5%
Apoptosis (%) After Drug Treatment (DU-145; DU-145 + DC (50 μM dicoumarol)): 43 ± 12%
Apoptosis (%) After Drug Treatment (DU-145; DU-145 + DVED): 10 ± 5%
Apoptosis (%) After Drug Treatment (DU-145; DU-145): 30 ± 06%
Apoptosis (%) After Drug Treatment (PC-3; PC-3 + DC (50 μM dicoumarol)): 22 ± 7%
Apoptosis (%) After Drug Treatment (PC-3; PC-3 + DVED): 6 ± 5%
Apoptosis (%) After Drug Treatment (PC-3; PC-3): 23 ± 3%

O=c1oc2ccccc2c(O)c1Cc1c(O)c2ccccc2oc1=O [dicoumarol]
effect on cell growth (survival), alone (A549 NSCLC cells): no effect

CC1=CC(=O)c2ccccc2C1=O [menadione]
sensitivity compared to NQO1-deficient LN-pcDNA3 vector alone cells [1]: resistant

OC[C@H]1O[C@@H]2O[C@H]3[C@H](O)[C@@H](O)[C@@H](O[C@H]4[C@H](O)[C@@H](O)[C@@H](O[C@H]5[C@H](O)[C@@H](O)[C@@H](O[C@H]6[C@H](O)[C@@H](O)[C@@H](O[C@H]7[C@H](O)[C@@H](O)[C@@H](O[C@H]1[C@H](O)[C@H]2O)O[C@@H]7CO)O[C@@H]6CO)O[C@@H]5CO)O[C@@H]4CO)O[C@@H]3CO [α-CD]
association constant Kc (phase solubility) [2]: 20.0 ± 0.7 M⁻¹ and 20 M⁻¹

OC[C@H]1O[C@@H]2O[C@H]3[C@H](O)[C@@H](O)[C@@H](O[C@H]4[C@H](O)[C@@H](O)[C@@H](O[C@H]5[C@H](O)[C@@H](O)[C@@H](O[C@H]6[C@H](O)[C@@H](O)[C@@H](O[C@H]7[C@H](O)[C@@H](O)[C@@H](O[C@H]8[C@H](O)[C@@H](O)[C@@H](O[C@H]9[C@H](O)[C@@H](O)[C@@H](O[C@H]1[C@H](O)[C@H]2O)O[C@@H]9CO)O[C@@H]8CO)O[C@@H]7CO)O[C@@H]6CO)O[C@@H]5CO)O[C@@H]4CO)O[C@@H]3CO [γ-CD]
Kc increase over α-CD (factor) [2]: 8
association constant Kc (phase solubility) [2]: 160 ± 5 M⁻¹ and 160 M⁻¹

hydroxypropyl β-cyclodextrin [HPβ-CD]
solubility (limit) of HPβ-CD [3]: 360 mM
